Measured values published in US7550495B2 (priority 2004, dated 2009).
≈ marks a conversion by molar mass, not a printed value.

How the values were obtained:
[1] = Metabolic stability assay in human liver microsomes; assay type: in vitro ADME
Procedure: (§1) A solution of 500 μl of 100 μM compound in DMSO is incubated with human or rat liver microsomes (843 μl of microsomes of 0.5618 mg/mL in 30 ml 0.1 M KH2PO4 buffer pH7.4) at 37° C. for 10 min in a 96-deep well plate. NADPH (46 μL) at a concentration of 8.33 mg/ml in 100 mM KH2PO4 buffer pH 7.4 is added to start the reaction. The reaction mixtures are transferred to a 384-well plate containing acetonitrile to quench the reaction at time 0, 10, 20, 30 minutes. The 384 well plate is centrifuged for 30 min at 9000 g, at 4° C., from which samples are analyzed by LC/MS (model: XDB Eclipse C18). Three references are analyzed by LC/MS as a positive control. Data are processed following a standard procedure. The metabolic stability of assayed compounds is expressed as μL/min/mg

[2] = Assay condition for measuring solubility; assay type: physicochemical; conditions: for solubility at 24 h: thermodynamic from solid, aqueous, sodium phosphate buffer pH 7.4, 24 h, 25° C.
Procedure: A 30 mM DMSO stock is prepared of the sample and then a 25 μL aliquot is added to a 96-well plate and genevac at 40° C. for 4 hours. To the genevac compound add 250 μL of sodium phosphate buffer (pH 7.4) and then mix at 1200 rpm for 24 h using an Eppendorf Thermomixer at 25° C. After mixing solution is transferred to a 96-well Whatman GF/B filter plate and then filtered under vacuum. The supernatant is then injected onto the LC/MS for analysis and quantitation is performed using a 1-point calibration for the compound of interest.

[3] = Metabolic stability assay in rat liver microsomes; assay type: in vitro ADME; conditions: pH 7.4, 37° C., read-out: rCLint
Procedure: as §1

Human CB1 receptor [4] = target: T1, Human CB1 receptor (Homo sapiens, UniProt P21554); assay: hCB1 receptor binding (3H-CP55,940 displacement); conditions: Ki=IC50/(1+[rad]/Kd)
T1 construct: purchased Receptor Biology
Procedure: Human CB1 receptor from Receptor Biology (hCB1) or human CB2 receptor from BioSignal (hCB2) membranes are thawed at 37° C., passed 3 times through a 25-gauge blunt-end needle, diluted in the cannabinoid binding buffer (50 mM Tris, 2.5 mM EDTA, 5 mM MgCl2, and 0.5 mg/mL BSA fatty acid free, pH 7.4) and aliquots containing the appropriate amount of protein are distributed in 96-well plates. The IC50 of the compounds of the invention at hCB1 and hCB2 are evaluated from 10-point dose-response curves done with ^3H-CP55,940 at 20000 to 25000 dpm per well (0.17-0.21 nM) in a final volume of 300 μl. The total and non-specific binding are determined in the absence and presence of 0.2 μM of HU210 respectively. The plates are vortexed and incubated for 60 minutes at room temperature, filtered through Unifilters GF/B (presoaked in 0.1% polyethyleneimine) with the Tomtec or Packard harvester using 3 mL of wash buffer (50 mM Tris, 5 mM MgCl2, 0.5 mg BSA pH 7.0). The filters are dried for 1 hour at 55° C. The radioactivity (cpm) is counted in a TopCount (Packard) after adding 65 μl/well of MS-20 scintillation liquid.
Based on the above assays, the dissociation constant (Ki) for a particular compound of the invention towards a particular receptor is determined using the following equation: Ki=IC50/(1+[rad]/Kd), […]

Human CB1 receptor [5] = target: T1, Human CB1 receptor; assay: hCB1 GTPγS binding; assay type: biochemical
Procedure: Human CB1 receptor from Receptor Biology (hCB1) or human CB2 receptor membranes (BioSignal) are thawed at 37° C., passed 3 times through a 25-gauge blunt-end needle and diluted in the GTPγS binding buffer (50 mM Hepes, 20 mM NaOH, 100 mM NaCl, 1 mM EDTA, 5 mM MgCl2, pH 7.4, 0.1% BSA). The EC50 and Emax of the compounds of the invention are evaluated from 10-point dose-response curves done in 300 μl with the appropriate amount of membrane protein and 100000-130000 dpm of GTPg^35S per well (0.11-0.14 nM). The basal and maximal stimulated binding is determined in absence and presence of 1 μM (hCB2) or 10 μM (hCB1) Win 55,212-2 respectively. The membranes are pre-incubated for 5 minutes with 56.25 μM (hCB2) or 112.5 μM (hCB1) GDP prior to distribution in plates (15 μM (hCB2) or 30 μM (hCB1) GDP final). The plates are vortexed and incubated for 60 minutes at room temperature, filtered on Unifilters GF/B (presoaked in water) with the Tomtec or Packard harvester using 3 ml of wash buffer (50 mM Tris, 5 mM MgCl2, 50 mM NaCl, pH 7.0). The filters are dried for 1 hour at 55° C. The radioactivity (cpm) is counted in a TopCount (Packard) after adding 65 μl/well of MS-20 scintillation liquid. […]

[6] = pH 7.4, 37° C., read-out: hCLint

T1 sequence (P21554 whole entry): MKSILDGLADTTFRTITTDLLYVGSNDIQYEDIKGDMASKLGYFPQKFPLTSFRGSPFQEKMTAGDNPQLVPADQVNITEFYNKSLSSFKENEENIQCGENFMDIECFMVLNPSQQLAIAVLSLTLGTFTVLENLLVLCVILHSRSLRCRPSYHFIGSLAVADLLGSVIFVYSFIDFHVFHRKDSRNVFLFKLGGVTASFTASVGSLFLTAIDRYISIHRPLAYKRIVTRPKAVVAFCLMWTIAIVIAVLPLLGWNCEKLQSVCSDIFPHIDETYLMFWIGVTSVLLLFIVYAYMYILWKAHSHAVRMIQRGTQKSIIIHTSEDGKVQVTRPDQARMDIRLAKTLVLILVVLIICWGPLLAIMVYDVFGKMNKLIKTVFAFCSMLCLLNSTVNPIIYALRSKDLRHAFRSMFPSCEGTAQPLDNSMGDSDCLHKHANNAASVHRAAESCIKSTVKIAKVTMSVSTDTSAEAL

Question: Which results are given for `CCCS(=O)(=O)Nc1ccc2c(c1)nc(C(C)(C)C)n2CC1CCC(F)(F)CC1`?
Answer: microsomal CLint at 1.6 µM [1, 6]: 10.7 µL/min/mg; solubility at 24 h [2]: 3.79 µM (≈ 1.62 µg/mL); microsomal CLint at 1.6 µM [3]: 8.04 µL/min/mg

Question: Which microsomal CLint at 1.6 µM [1, 6] does the source give for `CCS(=O)(=O)Nc1ccc2c(c1)nc(C(C)(C)C)n2CC1CCC(F)(F)CC1` here?
Answer: Its microsomal CLint at 1.6 µM is 5.76 µL/min/mg.

Question: And the solubility at 24 h [2]?
Answer: Its solubility at 24 h is 7.36 µM (≈ 3.04 µg/mL).

Question: What about the microsomal CLint at 1.6 µM [3] of the same compound?
Answer: The microsomal CLint at 1.6 µM was 11.7 µL/min/mg.

Question: What does the source list for `CC(C)(C)c1nc2cc(NS(C)(=O)=O)ccc2n1CC1CCC(F)(F)CC1`?
Answer: microsomal CLint at 1.6 µM [1, 6]: 7.41 µL/min/mg; solubility at 24 h [2]: 4.3 µM (≈ 1.72 µg/mL); microsomal CLint at 1.6 µM [3]: 23.4 µL/min/mg

Question: Which microsomal CLint at 1.6 µM [1, 6] does the source give for `CC(C)(C)c1nc2cc(NS(=O)(=O)C3CC3)ccc2n1CC1CCC(F)(F)CC1` here?
Answer: The microsomal CLint at 1.6 µM was 7.77 µL/min/mg.

Question: And the solubility at 24 h [2]?
Answer: The solubility at 24 h was 5.93 µM (≈ 2.52 µg/mL).

Question: And the microsomal CLint at 1.6 µM [3]?
Answer: The microsomal CLint at 1.6 µM was 10.2 µL/min/mg.

Question: What does the source list for `CC(F)(F)c1nc2cc(NS(=O)(=O)C3CC3)ccc2n1CC1CCC(F)(F)CC1`?
Answer: microsomal CLint at 1.6 µM [1, 6]: 5.27 µL/min/mg; solubility at 24 h [2]: 51.9 µM (≈ 22.5 µg/mL); microsomal CLint at 1.6 µM [3]: < 4 µL/min/mg

Question: For `CCS(=O)(=O)Nc1ccc2c(c1)nc(C(C)(C)C)n2CC1CCC(F)CC1` (centres unmarked), which microsomal CLint at 1.6 µM [1, 6] is on record?
Answer: Its microsomal CLint at 1.6 µM is 5.72 µL/min/mg.

Question: What about the solubility at 24 h [2] of the same compound?
Answer: The solubility at 24 h was 353 µM (≈ 140 µg/mL).

Question: What about the microsomal CLint at 1.6 µM [3] of the same compound?
Answer: Its microsomal CLint at 1.6 µM is 62.6 µL/min/mg.

Question: Which microsomal CLint at 1.6 µM [1, 6] does the source give for `CC(C)(C)c1nc2cc(NS(=O)(=O)C(C)(C)C)ccc2n1CC1CCC(F)(F)CC1` here?
Answer: The microsomal CLint at 1.6 µM was 8.03 µL/min/mg.

Question: What about the solubility at 24 h [2] of the same compound?
Answer: The solubility at 24 h was 0.61 µM (≈ 0.269 µg/mL).

Question: And the microsomal CLint at 1.6 µM [3]?
Answer: Its microsomal CLint at 1.6 µM is 15.4 µL/min/mg.

Question: What does the source list for `CC(F)(F)c1nc2cc(NS(=O)(=O)C(C)(C)C)ccc2n1CC1CCC(F)(F)CC1`?
Answer: microsomal CLint at 1.6 µM [1, 6]: < 4 µL/min/mg; solubility at 24 h [2]: 0.51 µM (≈ 0.229 µg/mL); microsomal CLint at 1.6 µM [3]: 6.87 µL/min/mg

Question: What does the source list for `CC(C)(C)c1nc2cc(NS(=O)(=O)C3CC3)ccc2n1CC1CCC(F)CC1` (centres unmarked)?
Answer: microsomal CLint at 1.6 µM [1, 6]: < 4 µL/min/mg; solubility at 24 h [2]: 233 µM (≈ 95 µg/mL)

Question: For `CC(C)(C)c1nc2cc(NS(=O)(=O)C(C)(C)C)ccc2n1CC1CCC(F)CC1` (centres unmarked), which microsomal CLint at 1.6 µM [1, 6] is on record?
Answer: Its microsomal CLint at 1.6 µM is 11.5 µL/min/mg.

Question: And the solubility at 24 h [2]?
Answer: Its solubility at 24 h is 154 µM (≈ 65.3 µg/mL).

Question: What does the source list for `CCS(=O)(=O)Nc1ccc2c(c1)nc(C(C)(C)C)n2CC1CCC(F)CC1` (single isomer, unassigned) [Isomer A, N-{2-tert-Butyl-1-[(4-fluorocyclohexyl)methyl]-1H-benzimidazol-5-yl}ethanesulfonamide (isomers)]?
Answer: Sol. pH 7.4 ([2]; listed as A): 64 μM; Ki (Human CB1 receptor [4]): 148 nM

Question: With `CCS(=O)(=O)Nc1ccc2c(c1)nc(C(C)(C)C)n2CC1CCC(F)CC1` (single isomer, unassigned) [Isomer B, N-{2-tert-Butyl-1-[(4-fluorocyclohexyl)methyl]-1H-benzimidazol-5-yl}ethanesulfonamide (isomers)] as the compound, how does the microsomal CLint at 1.6 µM ([1]; pH 7.4, read-out: hClint) read?
Answer: The microsomal CLint at 1.6 µM was 7.7 µL/min/mg.

Question: What about the “Sol. pH 7.4” value ([2]; listed as B) of the same compound?
Answer: Its value is 381 μM.

Question: What about the Ki (Human CB1 receptor [4]) of the same compound?
Answer: The Ki was 14.8 nM.

Question: What about the EC50 (Human CB1 receptor [5]) of the same compound?
Answer: The EC50 was 4.9 nM.

Question: What about the Emax (Human CB1 receptor [5]; maximal stimulation with 10 μM Win 55,212-2) of the same compound?
Answer: The Emax was 103%.
